Assay results reported in patent US20240252506A1 (Hoffmann-La Roche Inc., priority 2021, published 2024).
Converted amounts (≈) assume the structure as drawn.

These compounds were tested on Escherichia coli ATCC 25922 (assay: Minimal Inhibitory Concentration (MIC) determination, broth microdilution (CLSI M07-A10)). Settings: Escherichia coli, ATCC25922, read-out: Escherichia coli growth inhibition MIC, strain Escherichia coli ATCC 25922, 18-24 hours at 35±2° C., lowest concentration for complete growth inhibition (no visible growth).
Type: cell-based
Description: Minimal Inhibitory Concentration (MIC) Determination:
The MIC of antibacterial compounds against multiple species and strains was determined using the broth microdilution method according to M07-A10 Clinical and Laboratory Standards Institute (CLSI) guidelines, using the appropriate broth medium. In short, the compound plates were prepared by dispensing 100 μL of each stock solution in the first well of a 96 well microtiter plate (MTP) at a concentration 100-fold higher than the final concentration desired in broth. Eleven serial 2-fold dilutions of the highest concentration were made in DMSO for new compounds and in water (or appropriate solution) for reference compounds [2]. 1 μL of each well was transferred in a new MTP, which served as the test plate by subsequent inoculation. This bacterial suspension was prepared from strains that were first sub-cultured on agar plates and incubated for 18-24 hours as appropriate. Following incubation, the inoculum was prepared from isolated colonies and adjusted to 0.5 McFarland turbidity standard (1 to 2×10^8 Colony Forming Units (CFU)/mL) in 0.9% saline. The bacterial suspension was then diluted 1:200 in appropriate sterile medium and within 15 minutes 100 μL/well were dispensed. Negative controls (lack of bacterial cells) and growth control wells (lack of compound) were included in all plates. MTPs were incubated for 18-24 hours at 35±2° C. in ambient air. The MIC value of each compound, expressed as μg/mL, was determined as the lowest concentration required for complete growth inhibition (no visible growth). • [1] CLSI (2015) Methods for dilution antimicrobial susceptibility tests for bacteria that grow aerobically; Approved Standard, Tenth Edition. CLSI Document M7-A10 (ISBN 1-56238-987-4). Wayne, PA: Clinical and Laboratory Standards Institute, 19087, USA. • [2] CLSI (2017) Performance Standards for Antimicrobial Susceptibility Testing; Twenty-Fifth Informational Supplement. CLSI Document M100-S27, CLSI, Wayne, Pennsylvania 19087, USA.
Table 1 provides the Minimal Inhibitory Concentrations (MIC) in micrograms per millilitre of the compounds of present invention obtained against the strain Escherichia coli ATCC 25922.

| SMILES | MIC |
| --- | --- |
| O=C1COc2ncc(N3CC4(CCN(CC5Cc6cc7nnn(C8CNC8)c7c(F)c6C5)CC4)OC3=O)nc2N1 (single isomer, unassigned) [Example 113, formic acid] | 0.125 µg/mL (≈ 0.227 µM) |

Same assay, conditions: Escherichia coli, ATCC25922, strain Escherichia coli ATCC 25922, 18-24 hours at 35±2° C., lowest concentration for complete growth inhibition (no visible growth), read-out: Escherichia coli growth inhibition MIC

| MIC | SMILES |
| --- | --- |
| 0.5 µg/mL (≈ 0.922 µM) | CN(C)Cc1nc2c(F)c3c(c(F)c2[nH]1)CC(CNCCC1CN(c2cnc4c(n2)NC(=O)CO4)C(=O)O1)C3 (stereo not shown) [Example 2, 6-[5-[2-[[2-[(dimethylamino)methyl]-4,8-difluoro-3,5,6,7-tetrahydrocyclopenta[f]benzimidazol-6-yl]methylamino]ethyl]-2-oxo-oxazolidin-3-yl]-4H-pyrazino[2,3-b][1,4]oxazin-3-one] |
| ≤ 0.06 µg/mL | NCCn1nnc2c(F)c3c(cc21)CC(CN1CCC2(CC1)CN(c1cnc4c(n1)NC(=O)CO4)C(=O)O2)C3 (stereo not shown) [Example 75, 6-[8-[[3-(2-aminoethyl)-8-fluoro-6,7-dihydro-5H-cyclopenta[f]benzotriazol-6-yl]methyl]-2-oxo-1-oxa-3,8-diazaspiro[4.5]decan-3-yl]-4H-pyrazino[2,3-b][1,4]oxazin-3-one] |
| 0.125 µg/mL (≈ 0.22 µM) | CC(C)(N)c1nc2c(F)c3c(c(F)c2[nH]1)CC(CN1CCC2(CC1)CN(c1cnc4c(n1)NC(=O)CO4)C(=O)O2)C3 [Example 30, 6-[8-[[2-(1-amino-1-methyl-ethyl)-4,8-difluoro-3,5,6,7-tetrahydrocyclopenta[f]benzimidazol-6-yl]methyl]-2-oxo-1-oxa-3,8-diazaspiro[4.5]decan-3-yl]-4H-pyrazino[2,3-b][1,4]oxazin-3-one] |
| 8 µg/mL (≈ 13.1 µM) | CC(=O)N(C)CCn1nnc2c(F)c3c(c(F)c21)CC(CN1CCC2(CC1)CN(c1cnc4c(n1)NC(=O)CO4)C(=O)O2)C3 (single isomer, unassigned) [Example 156, N-[2-[4,8-difluoro-6-[[2-oxo-3-(3-oxo-4H-pyrazino[2,3-b][1,4]oxazin-6-yl)-1-oxa-3,8-diazaspiro[4.5]decan-8-yl]methyl]-6,7-dihydro-5H-cyclopenta[f]benzotriazol-1-yl]ethyl]-N-methyl-acetamide] |
| 0.5 µg/mL (≈ 0.902 µM) | CN(C)Cc1nc2c(F)c3c(c(F)c2[nH]1)CC(CNC1CC2(C1)CN(c1cnc4c(n1)NC(=O)CO4)C(=O)O2)C3 (stereo not shown) [Example 29, 6-[2-[[2-[(dimethylamino)methyl]-4,8-difluoro-3,5,6,7-tetrahydrocyclopenta[f]benzimidazol-6-yl]methylamino]-6-oxo-5-oxa-7-azaspiro[3.4]octan-7-yl]-4H-pyrazino[2,3-b][1,4]oxazin-3-one] |
| 0.125 µg/mL (≈ 0.233 µM) | C[C@@H](N)c1nc2cc3c(c(F)c2o1)CC(CN1CCC2(CC1)CN(c1cnc4c(n1)NC(=O)CO4)C(=O)O2)C3 (stereo partly drawn) [Example 90, 6-[8-[[2-[(1R)-1-aminoethyl]-8-fluoro-6,7-dihydro-5H-cyclopenta[f][1,3]benzoxazol-6-yl]methyl]-2-oxo-1-oxa-,38-diazaspiro[4.5]decan-3-yl]-4H-pyrazino[2,3-b][1,4]oxazin-3-one] |
| 0.25 µg/mL (≈ 0.44 µM) | CNCCn1cnc2c(F)c3c(c(F)c21)CC(CN1CCC2(CC1)CN(c1cnc4c(n1)NC(=O)CO4)C(=O)O2)C3 (single isomer, unassigned) [Example 126, 6-[2-oxo-8-[[4,8-difluoro-1-[2-(methylamino)ethyl]-6,7-dihydro-5H-cyclopenta[f]benzimidazol-6-yl]methyl]-1-oxa-3,8-diazaspiro[4.5]decan-3-yl]-4H-pyrazino[2,3-b][1,4]oxazin-3-one] |
| 0.5 µg/mL (≈ 0.881 µM) | CN[C@@H](CO)c1nc2cc3c(c(F)c2o1)CC(CN1CCC2(CC1)CN(c1cnc4c(n1)NC(=O)CO4)C(=O)O2)C3 (single isomer, unassigned) [Example 145] |
| 0.25 µg/mL (≈ 0.43 µM) | NC1(Cn2nnc3c(F)c4c(c(F)c32)CC(CN2CCC3(CC2)CN(c2cnc5c(n2)NC(=O)CO5)C(=O)O3)C4)CC1 (stereo not shown) [Example 78, 6-[8-[[1-[(1-aminocyclopropyl)methyl]-4,8-difluoro-6,7-dihydro-5H-cyclopenta[f]benzotriazol-6-yl]methyl]-2-oxo-1-oxa-3,8-diazaspiro[4.5]decan-3-yl]-4H-pyrazino[2,3-b][1,4]oxazin-3-one] |
